In US6166004A, “Combinations of HIV protease inhibitors with reverse transcriptase inhibitors” (Novartis Finance Corporation, priority 1996, dated 2000):

Tests used:
[1] = tested on: 46I/47V/50V (VX478) strain; experiment: Transient DNA transfection assay, resistant strain 46I/47V/50V (VX478); format: cell-based, HIV-1; settings: 10 nM, not quantified
Description: (§1) Inhibitor-resistant HIV-1 protease variants are cloned as follows:
(§2) By way of PCR-supported mutagenesis and cloning, HIV-1 protease mutants are generated that are based on the infectious clone pNL4-3 (freely available via the "NIH AIDS reference and reagent program", the original reference is A. Adachi et al. J. Virol (1986) 59, 284-91--but it can, of course, be any other HIV clone, or even clinical material, provided that comparability is ensured). […] The cloned fragments are, for example, only 500 base pairs in length, all of the remainder being unchanged. By using mutations in always the same clone, direct comparability is ensured, which would not be the case in a direct comparison of clinical samples or of different HIV clones.
(§3) That system is used as a transient DNA transfection system for tests:
(§4) 1) in order to identify possible cross-resistances of protease variants to several protease inhibitors; and
(§5) 2) in order to establish the potency and resistance profile of novel inhibitor candidates.
(§6) Instead of the strains mentioned, there may be used any human T4-positive cells, such as the HeLaT4 cells, deposited under that name by Richard Axel and Paul Maddon in "NIH AIDS reference and reagent program" and obtainable via that source.

[2] = tested on: HIV-1 protease resistant variant (451/76F strain)
Description: as §1, §2, §3, §4, §5, §6

[3] = tested on: HIV-1 (pNL4-3 clone) in HeLaT4 cells; experiment: Transient DNA transfection assay in HeLaT4 cells (HIV clone pNL4-3), potency; format: cell-based; settings: transfection system
Description: as §1, §2, §3, §4, §5, §6

COC(=O)N[C@H](C(=O)N[C@@H](Cc1ccccc1)[C@@H](O)CN(Cc1ccc(-c2ccccn2)cc1)NC(=O)[C@@H](NC(=O)OC)C(C)(C)C)C(C)(C)C [Example 46, 1-[4-(Pyridin-2-yl)-phenyl]-4(S)-hydroxy-5(S)-2,5-bis[N-(N-methoxycarbonyl-(L)-tert-leucyl)amino]-6-phenyl-2-azahexane]
activity compared with saquinavir, ritonavir and indinavir [1]: more potent (not quantified) than that of saquinavir, ritonavir and indinavir | activity against resistant variant compared with other protease inhibitors [2]: comparable with saquinavir and better than that of indinavir (Merck & Co., Inc., see below) or ritonavir | in vitro potency compared with saquinavir [3]: in practical terms better than that of saquinavir
